ChEMBL document CHEMBL3352057, “Novel fluorinated pyrrolo[1,2-a]pyrazine-2,6-dione derivatives: synthesis and anticonvulsant evaluation in animal models of epilepsy” (Bioorg Med Chem, 2014)
Calls of active or inactive are those of the source. The calls are words filed in the database; no cut-off is given here.

How the values were obtained:
Rattus norvegicus [1] = test: Anticonvulsant activity in Sprague-Dawley rat assessed as protection against maximal electroshock-induced seizures at 30 mg/kg, ip measured after 2 hrs; type: functional, organism-based; parameters: dose 30 mg/kg
Mus musculus [2] = test: Neurotoxicity in albino CF1 mouse at 100 mg/kg, ip measured after 1 hr; type: toxicity, organism-based; parameters: dose 100 mg/kg, route intraperitoneal; conditions: in vivo
Rattus norvegicus [3] = test: Neurotoxicity in MES Sprague-Dawley rat model at 30 mg/kg, po measured after 0.5 hr; type: toxicity, organism-based; parameters: dose 30 mg/kg, route oral; conditions: in vivo
Mus musculus [4] = test: Anticonvulsant activity in albino CF1 mouse assessed as protection against maximal electroshock-induced seizures at 100 mg/kg, ip measured after 0.25 hr; type: functional, organism-based; parameters: dose 100 mg/kg
Rattus norvegicus [5] = test: Neurotoxicity in MES Sprague-Dawley rat model at 30 mg/kg, ip measured after 2 hrs; type: toxicity, organism-based; parameters: dose 30 mg/kg, route intraperitoneal; conditions: in vivo
Mus musculus [6] = test: Neurotoxicity in 32 mA current-induced seizure albino CF1 mouse model at 100 mg/kg, ip measured after 0.5 hr; type: toxicity, organism-based; parameters: dose 100 mg/kg, route intraperitoneal; conditions: in vivo
Rattus norvegicus [7] = test: Neurotoxicity in MES Sprague-Dawley rat model at 30 mg/kg, po measured after 0.25 hr; type: toxicity, organism-based; parameters: dose 30 mg/kg, route oral; conditions: in vivo
Rattus norvegicus [8] = test: Anticonvulsant activity in Sprague-Dawley rat assessed as protection against maximal electroshock-induced seizures at 30 mg/kg, ip measured after 4 hrs; type: functional, organism-based; parameters: dose 30 mg/kg
Rattus norvegicus [9] = test: Anticonvulsant activity in Sprague-Dawley rat assessed as protection against maximal electroshock-induced seizures at 30 mg/kg, po measured after 0.5 hr; type: functional, organism-based; parameters: dose 30 mg/kg
Mus musculus [10] = test: Neurotoxicity in albino CF1 mouse at 100 mg/kg, ip measured after 0.5 hr; type: toxicity, organism-based; parameters: dose 100 mg/kg, route intraperitoneal; conditions: in vivo
Mus musculus [11] = test: Anticonvulsant activity in albino CF1 mouse assessed as protection against maximal electroshock-induced seizures at 100 mg/kg, ip measured after 1 hr; type: functional, organism-based; parameters: dose 100 mg/kg
Rattus norvegicus [12] = test: Anticonvulsant activity in Sprague-Dawley rat assessed as protection against maximal electroshock-induced seizures at 30 mg/kg, po measured after 1 hr; type: functional, organism-based; parameters: dose 30 mg/kg
Rattus norvegicus [13] = test: Neurotoxicity in MES Sprague-Dawley rat model at 30 mg/kg, po measured after 1 hr; type: toxicity, organism-based; parameters: dose 30 mg/kg, route oral; conditions: in vivo
Mus musculus [14] = test: Neurotoxicity in 32 mA current-induced seizure albino CF1 mouse model at 100 mg/kg, ip measured after 1 hr; type: toxicity, organism-based; parameters: dose 100 mg/kg, route intraperitoneal; conditions: in vivo
Mus musculus [15] = test: Neurotoxicity in albino CF1 mouse at 100 mg/kg, ip measured after 4 hrs; type: toxicity, organism-based; parameters: dose 100 mg/kg, route intraperitoneal; conditions: in vivo
Mus musculus [16] = test: Anticonvulsant activity in albino CF1 mouse assessed as protection against subcutaneous metrazol-induced seizures at 100 mg/kg, ip measured after 0.5 hr; type: functional, organism-based; parameters: dose 100 mg/kg
Rattus norvegicus [17] = test: Anticonvulsant activity in Sprague-Dawley rat assessed as protection against maximal electroshock-induced seizures at 30 mg/kg, ip measured after 0.25 hr; type: functional, organism-based; parameters: dose 30 mg/kg
Mus musculus [18] = test: Anticonvulsant activity in albino CF1 mouse assessed as protection against subcutaneous metrazol-induced seizures at 100 mg/kg, ip measured after 0.25 hr; type: functional, organism-based; parameters: dose 100 mg/kg
Rattus norvegicus [19] = test: Anticonvulsant activity in Sprague-Dawley rat assessed as protection against maximal electroshock-induced seizures at 30 mg/kg, ip measured after 0.5 hr; type: functional, organism-based; parameters: dose 30 mg/kg
Mus musculus [20] = test: Anticonvulsant activity in albino CF1 mouse assessed as protection against 32 mA current-induced seizures at 100 mg/kg, ip measured after 2 hrs; type: functional, organism-based; parameters: dose 100 mg/kg
Rattus norvegicus [21] = test: Anticonvulsant activity in Sprague-Dawley rat assessed as protection against maximal electroshock-induced seizures at 30 mg/kg, ip measured after 1 hr; type: functional, organism-based; parameters: dose 30 mg/kg
Rattus norvegicus [22] = test: Neurotoxicity in MES Sprague-Dawley rat model at 30 mg/kg, ip measured after 4 hrs; type: toxicity, organism-based; parameters: dose 30 mg/kg, route intraperitoneal; conditions: in vivo
Mus musculus [23] = test: Anticonvulsant activity in albino CF1 mouse assessed as protection against 32 mA current-induced seizures at 100 mg/kg, ip measured after 4 hrs; type: functional, organism-based; parameters: dose 100 mg/kg
Rattus norvegicus [24] = test: Neurotoxicity in MES Sprague-Dawley rat model at 30 mg/kg, po measured after 2 hrs; type: toxicity, organism-based; parameters: dose 30 mg/kg, route oral; conditions: in vivo
Mus musculus [25] = test: Anticonvulsant activity in albino CF1 mouse assessed as protection against 32 mA current-induced seizures at 100 mg/kg, ip measured after 1 hr; type: functional, organism-based; parameters: dose 100 mg/kg
Mus musculus [26] = test: Anticonvulsant activity in albino CF1 mouse assessed as protection against maximal electroshock-induced seizures at 100 mg/kg, ip measured after 4 hrs; type: functional, organism-based; parameters: dose 100 mg/kg
Rattus norvegicus [27] = test: Anticonvulsant activity in Sprague-Dawley rat assessed as protection against maximal electroshock-induced seizures at 30 mg/kg, po measured after 4 hrs; type: functional, organism-based; parameters: dose 30 mg/kg
Rattus norvegicus [28] = test: Neurotoxicity in MES Sprague-Dawley rat model at 30 mg/kg, ip measured after 1 hr; type: toxicity, organism-based; parameters: dose 30 mg/kg, route intraperitoneal; conditions: in vivo
Mus musculus [29] = test: Anticonvulsant activity in albino CF1 mouse assessed as protection against maximal electroshock-induced seizures at 100 mg/kg, ip measured after 0.5 hr; type: functional, organism-based; parameters: dose 100 mg/kg
Mus musculus [30] = test: Anticonvulsant activity in albino CF1 mouse assessed as protection against 32 mA current-induced seizures at 100 mg/kg, ip measured after 0.25 hr; type: functional, organism-based; parameters: dose 100 mg/kg
Mus musculus [31] = test: Neurotoxicity in 32 mA current-induced seizure albino CF1 mouse model at 100 mg/kg, ip measured after 2 hrs; type: toxicity, organism-based; parameters: dose 100 mg/kg, route intraperitoneal; conditions: in vivo
Mus musculus [32] = test: Anticonvulsant activity in albino CF1 mouse assessed as protection against subcutaneous metrazol-induced seizures at 100 mg/kg, ip measured after 4 hrs; type: functional, organism-based; parameters: dose 100 mg/kg
Rattus norvegicus [33] = test: Neurotoxicity in MES Sprague-Dawley rat model at 30 mg/kg, ip measured after 0.5 hr; type: toxicity, organism-based; parameters: dose 30 mg/kg, route intraperitoneal; conditions: in vivo
Rattus norvegicus [34] = test: Anticonvulsant activity in Sprague-Dawley rat assessed as protection against maximal electroshock-induced seizures at 30 mg/kg, po measured after 2 hrs; type: functional, organism-based; parameters: dose 30 mg/kg
Rattus norvegicus [35] = test: Neurotoxicity in MES Sprague-Dawley rat model at 30 mg/kg, ip measured after 0.25 hr; type: toxicity, organism-based; parameters: dose 30 mg/kg, route intraperitoneal; conditions: in vivo
Rattus norvegicus [36] = test: Neurotoxicity in MES Sprague-Dawley rat model at 30 mg/kg, po measured after 4 hrs; type: toxicity, organism-based; parameters: dose 30 mg/kg, route oral; conditions: in vivo
Mus musculus [37] = test: Neurotoxicity in 32 mA current-induced seizure albino CF1 mouse model at 100 mg/kg, ip measured after 0.25 hr; type: toxicity, organism-based; parameters: dose 100 mg/kg, route intraperitoneal; conditions: in vivo
Mus musculus [38] = test: Neurotoxicity in albino CF1 mouse at 100 mg/kg, ip measured after 0.25 hr; type: toxicity, organism-based; parameters: dose 100 mg/kg, route intraperitoneal; conditions: in vivo
Mus musculus [39] = test: Neurotoxicity in 32 mA current-induced seizure albino CF1 mouse model at 100 mg/kg, ip measured after 4 hrs; type: toxicity, organism-based; parameters: dose 100 mg/kg, route intraperitoneal; conditions: in vivo
Mus musculus [40] = test: Anticonvulsant activity in albino CF1 mouse assessed as protection against subcutaneous metrazol-induced seizures at 100 mg/kg, ip measured after 1 hr; type: functional, organism-based; parameters: dose 100 mg/kg
Mus musculus [41] = test: Anticonvulsant activity in albino CF1 mouse assessed as protection against 32 mA current-induced seizures at 100 mg/kg, ip measured after 0.5 hr; type: functional, organism-based; parameters: dose 100 mg/kg
Rattus norvegicus [42] = test: Anticonvulsant activity in Sprague-Dawley rat assessed as protection against maximal electroshock-induced seizures at 30 mg/kg, po measured after 0.25 hr; type: functional, organism-based; parameters: dose 30 mg/kg
Mus musculus [43] = test: Anticonvulsant activity in albino CF1 mouse assessed as protection against subcutaneous metrazol-induced seizures at 300 mg/kg, ip measured after 0.5 hr; type: functional, organism-based; parameters: dose 300 mg/kg
Mus musculus [44] = test: Neurotoxicity in albino CF1 mouse at 300 mg/kg, ip measured after 0.5 hr; type: toxicity, organism-based; parameters: dose 300 mg/kg, route intraperitoneal; conditions: in vivo
Rattus norvegicus [45] = test: Anticonvulsant activity in ip dosed Sprague-Dawley rat assessed as protection against maximal electroshock-induced seizures; type: functional
[46] = Neurotoxicity in ip dosed Sprague-Dawley rat; type: toxicity, organism-based; conditions: in vivo
[47] = Protective index, ratio of TD50 for neurotoxicity in ip dosed Sprague-Dawley rat to ED50 for anticonvulsant activity in ip dosed MES Sprague-Dawley rat model; type: toxicity, organism-based; conditions: in vivo, read-out: Ratio TD50/ED50
Rattus norvegicus [48] = test: Anticonvulsant activity in ip dosed Sprague-Dawley rat assessed as protection against subcutaneous metrazol-induced seizures; type: functional
Rattus norvegicus [49] = test: Anticonvulsant activity in ip dosed Sprague-Dawley rat assessed as protection against maximal electroshock-induced seizures measured as time to peak effect; type: functional
Rattus norvegicus [50] = test: Anticonvulsant activity in ip dosed hippocampal kindled albino Sprague-Dawley rat seizure model; type: functional; conditions: Hippocampus
Mus musculus [51] = test: Anticonvulsant activity in ip dosed albino CF1 mouse assessed as protection against maximal electroshock-induced seizures; type: functional
Mus musculus [52] = test: Anticonvulsant activity in ip dosed albino CF1 mouse assessed as protection against subcutaneous metrazol-induced seizures; type: functional
Rattus norvegicus [53] = test: Anticonvulsant activity in ip dosed hippocampal kindled albino Sprague-Dawley rat seizure model assessed as time of rest; type: functional, Hippocampus
Mus musculus [54] = test: Anticonvulsant activity in ip dosed albino CF1 mouse assessed as protection against maximal electroshock-induced seizures measured as time to peak effect; type: functional
[55] = Neurotoxicity in ip dosed albino CF1 mouse; type: toxicity, organism-based; conditions: in vivo

Compound: O=C1NC(=O)[C@@H](c2cccc(C(F)(F)F)c2)N2CCCC[C@H]12
- Activity (Rattus norvegicus [1]): inactive
- Activity (Mus musculus [2]): Non-toxic
- Activity (Rattus norvegicus [3]): Non-toxic
- Activity (Mus musculus [4]): inactive
- Activity (Rattus norvegicus [5]): Non-toxic
- Activity (Mus musculus [6]): Non-toxic
- Activity (Rattus norvegicus [7]): Non-toxic
- Activity (Rattus norvegicus [8]): inactive
- Activity (Rattus norvegicus [9]): inactive
- Activity (Mus musculus [10]): Non-toxic
- Activity (Mus musculus [11]): Active
- Activity (Rattus norvegicus [12]): inactive
- Activity (Rattus norvegicus [13]): Non-toxic
- Activity (Mus musculus [14]): Non-toxic
- Activity (Mus musculus [15]): Non-toxic
- Activity (Mus musculus [16]): inactive
- Activity (Rattus norvegicus [17]): inactive
- Activity (Mus musculus [18]): inactive
- Activity (Rattus norvegicus [19]): inactive
- Activity (Mus musculus [20]): inactive
- Activity (Rattus norvegicus [21]): inactive
- Activity (Rattus norvegicus [22]): Non-toxic
- Activity (Mus musculus [23]): inactive
- Activity (Rattus norvegicus [24]): Non-toxic
- Activity (Mus musculus [25]): Active
- Activity (Mus musculus [26]): inactive
- Activity (Rattus norvegicus [27]): inactive
- Activity (Rattus norvegicus [28]): Non-toxic
- Activity (Mus musculus [29]): inactive
- Activity (Mus musculus [30]): Active
- Activity (Mus musculus [31]): Non-toxic
- Activity (Mus musculus [32]): inactive
- Activity (Rattus norvegicus [33]): Non-toxic
- Activity (Rattus norvegicus [34]): inactive
- Activity (Rattus norvegicus [35]): Non-toxic
- Activity (Rattus norvegicus [36]): Non-toxic
- Activity (Mus musculus [37]): Non-toxic
- Activity (Mus musculus [38]): Non-toxic
- Activity (Mus musculus [39]): Non-toxic
- Activity (Mus musculus [40]): inactive
- Activity (Mus musculus [41]): Active
- Activity (Rattus norvegicus [42]): inactive

Compound: O=C1NC(=O)[C@@H](c2cccc(C(F)(F)F)c2)N2CCC[C@@H]12
- Activity (Mus musculus [43]): Active
- Activity (Mus musculus [2]): Non-toxic
- Activity (Mus musculus [4]): inactive
- Activity (Mus musculus [10]): Non-toxic
- Activity (Mus musculus [11]): inactive
- Activity (Mus musculus [15]): Non-toxic
- Activity (Mus musculus [16]): inactive
- Activity (Mus musculus [26]): inactive
- Activity (Mus musculus [29]): inactive
- Activity (Mus musculus [32]): inactive
- Activity (Mus musculus [44]): Toxic
- Activity (Mus musculus [38]): Toxic

Compound: O=C1NC(=O)C(c2ccccc2)(c2ccccc2)N1 [PHENYTOIN]
- ED50 (Rattus norvegicus [45]): 10 µmol/kg
- TD50 [46]: 66 µmol/kg
- selectivity ratio [47]: 6.4
- ED50 (Rattus norvegicus [48]): > 430 µmol/kg
- Time (Rattus norvegicus [49]): 0.25 h

Compound: COC[C@@H](NC(C)=O)C(=O)NCc1ccccc1 [LACOSAMIDE]
- ED50 (Rattus norvegicus [50]): 56 µmol/kg
- ED50 (Mus musculus [51]): 18 µmol/kg
- ED50 (Mus musculus [52]): > 100 µmol/kg
- Time (Rattus norvegicus [53]): 0.25 h
- Time (Mus musculus [54]): 0.5 h
- TD50 [55]: 107 µmol/kg
